This experiment addresses transactivating tegument protein VP16 (Human herpesvirus 1), as a GAL4-VP16 activation-domain luciferase reporter. In words: GAL4-VP16 reporter repression curves – cell-based, luminescence, high throughput, SRC3 series, counter-screen for SRC3 inhibitor project, dose response (AID 602167). Conditions: VP16 transactivation luciferase reporter cells.

Active and inactive are the calls of the source. The rule behind the calls is not given here. A value given as a limit tells only on which side of the number the result lay.

Usually IC50 stands for the midpoint of a concentration-inhibition curve. With `Brc1ccc2ncc3ccccc3c2c1`, the IC50 entry is “inactive”. With `O=C(OCc1ccccc1)c1ccc(NCc2cc(O)ccc2O)cc1`, the IC50 was 5.95 µM.

Turning to `CCCC(=O)NC(c1ccc2c(c1)OCO2)c1cc(Cl)c2cccnc2c1O` (stereo not drawn), the concentration for half-maximal inhibition (IC50) was 7.92 µM.

Take `CCOc1cc(C(N)=O)cc(Br)c1OC`: the IC50 was > 35.9 µM (inactive). Consider `Cc1ccc2occ(/C=N/NC(=O)c3ccccc3Br)c(=O)c2c1`, for which the half-inhibitory concentration (IC50) was 9.36 µM.

Consider `Nc1ccc(Oc2ccccc2-c2ccccc2)cc1`, for which the IC50 result is “inactive”.

For the molecule `C#CC(=O)N(c1cc(OC)ccc1OC)C(C(=O)NC1CCCC1)c1cccs1` (stereo not drawn), the IC50 is > 35.9 µM (inactive). On to `Cc1cccc(NC(=O)c2cc(Cl)ccc2[N+](=O)[O-])c1`, for which the IC50 result is “inactive”.

For the molecule `COc1ccccc1N(C(=O)CCl)c1cn(C(C)=O)c2ccccc12`, the IC50 is 8.58 µM.

Take `O=C(CC1CS(=O)(=O)CC1CC(=O)Nc1ccc2c(c1)OCCO2)Nc1ccc2c(c1)OCCO2` (stereo not drawn): the IC50 result was “inactive”.

For `Cc1ccc(C2=NN(C(=O)CCl)C(c3cccs3)C2)o1` (stereo not drawn), the IC50 entry was “inactive”. The entry for `COc1ccc(OC)c(N/C=C/C(=O)c2ccccc2)c1` is “inactive”. Turning to `O=C(OCCC12CC3CC(CC(C3)C1)C2)c1ccc(NCc2cc(O)ccc2O)cc1`, the IC50 is 5.45 µM. With `Cc1c(Cl)cccc1NC(=O)Nc1ccccc1C(N)=O`, the IC50 is > 35.9 µM (inactive).

Take `COc1ccc(/C=C2/SC(=S)N(CCC(=O)O)C2=O)cc1`: the IC50 was > 35.9 µM (inactive). The figure for `Nc1nc(=S)c2ncn([C@@H]3O[C@H](CO)[C@@H](O)[C@H]3O)c2[nH]1` is 3.37 µM; for `COc1ccc(-c2cn[nH]c2-c2ccc(OC)cc2O)cc1` it is 6.04 µM; for `COc1ccccc1C(=O)N(CCC1CCCN1C)c1nc2ccccc2s1` (stereo not drawn) it is 7.9 µM. The figure for `O=C(NC1CCCCC1)C(c1cccnc1)N(C(=O)CCl)c1cccc(Cl)c1` (stereo not drawn) is 6.03 µM; for `COc1cc(NS(C)(=O)=O)ccc1Nc1c2ccccc2nc2ccccc12` it is > 35.9 µM (inactive). On to `CCOc1ccc(/C=C2\SC(=S)N(CCC(=O)O)C2=O)cc1`, for which the IC50 is > 35.9 µM (inactive). The same measure for `COC(=O)c1cccc2c1-c1ccccc1/C2=N/O`: 5.73 µM; for `CC(=O)c1ccc(Nc2c3c(nc4ccccc24)CCCC3)cc1`: “inactive”; for `CCCCN1C=CC(=C2C(=O)c3ccccc3C2=O)C=C1`: 5.59 µM. In the case of `O=c1[nH]c2ccccc2n1C1CCN(C(c2cccc3ccccc23)c2nnnn2-c2ccc3c(c2)OCCO3)CC1` (stereo not drawn), the IC50 was 7.28 µM. For the molecule `c1ccc2c(c1)Nc1ccncc1S2`, the IC50 result was “inactive”. The same measure for `O=C(CCl)Nc1cccc(-c2cnc3ccccc3n2)c1`: “inactive”. Consider `CC(C)N(c1ccccc1)c1ccc(NC(=O)CCl)cc1`, for which the IC50 result is “inactive”. As to `CCOc1cc(/C=C2\CCC/C(=C\c3cc(Cl)c(O)c(OCC)c3)C2=O)cc(Cl)c1O`, the IC50 is 4.82 µM.

As to `Cc1ccc2occ(/C=N/NC(=O)[C@@H](N)Cc3ccccc3)c(=O)c2c1`, the IC50 was 9.66 µM. As to `COc1cc(/C=C(/C(=O)c2cccs2)c2nc3ccccc3[nH]2)cc(OC)c1O`, the IC50 is 8.01 µM. On to `N#Cc1c2ccc(O)cc2n2ccccc12`, for which the IC50 was > 35.9 µM (inactive). In the case of `CCOc1ccc(-c2cc(C)n3nc(C(N)=O)cc3n2)cc1`, the IC50 result was “inactive”. On to `O=C(c1ccncc1)N(Cc1cc2ccccc2[nH]c1=O)C1CCCCC1`, for which the half-inhibitory concentration (IC50) is 7.96 µM. On to `CNc1ncnc(Sc2nc(N)nc3nc[nH]c23)c1[N+](=O)[O-]`, for which the IC50 was 4.85 µM. In the case of `Cc1cc(/C=C2\Cc3ccccc3C2=O)c(C)n1-c1ccccc1`, the IC50 entry was “inactive”. As to `CCOc1ccc(Nc2cc(C)nc(-n3nc(C)cc3C)n2)cc1`, the IC50 result was “inactive”. Turning to `CCN(C(C)=O)c1cnc(C=NNC(N)=S)c2ccccc12`, the IC50 is 4.4 µM. The figure for `Cc1cc(-c2nnc(SCC(=O)Nc3ccccc3C(F)(F)F)o2)c(C)n1-c1ccccc1` is > 35.9 µM (inactive); for `COc1cc(C(=O)N/N=C(\c2ccccc2)c2ccccn2)cc(OC)c1OC` it is 7.23 µM; for `COc1cc2c(cc1OC)C(C)N(C(=O)c1cccc([N+](=O)[O-])c1)CC2` (stereo not drawn) it is 8.56 µM. Consider `CN1C(=O)C2(C(C#N)=C(N)N(c3cc(Cl)cc(Cl)c3)C3=C2C(=O)CCC3)c2ccccc21` (stereo not drawn), for which the IC50 result was “inactive”.

As to `Cc1ccc(/C=C2/SC(=S)N(CCCC(=O)Nc3ccc(O)cc3)C2=O)cc1`, the IC50 result was “inactive”. Regarding `Fc1ccccc1-c1csc(=Nc2cccnc2)n1CCCn1ccnc1`, the IC50 was 7.45 µM.

With `NS(=O)(=O)c1ccc(Sc2nc3ccccc3s2)c([N+](=O)[O-])c1`, the IC50 was 7.26 µM. On to `Nc1nc2c(nnn2C2CC(O)C(CO)O2)c(=O)[nH]1` (stereo not drawn), for which the IC50 result is “inactive”. For `CCCCC(=O)NC(c1ccc(Cl)cc1Cl)c1ccc2cccnc2c1O` (stereo not drawn), the IC50 is 4.78 µM. `CC(=O)NC(c1cc(Cl)c2cccnc2c1O)C(C)C` (stereo not drawn): the IC50 result is “inactive”.

For the molecule `COc1cc(C(=O)OCC(=O)Nc2sccc2C(N)=O)cc(OC)c1OC`, the IC50 was > 35.9 µM (inactive). `COc1ccc(-c2nsc3c(N4CCCCC4)ncnc23)cc1`: the IC50 entry was “inactive”. In the case of `O=C(Nc1cccnc1)c1ccc(C(=O)Nc2cccnc2)cc1`, the IC50 is > 35.9 µM (inactive). With `CCCNC(=O)c1nnsc1S(=O)(=O)c1ccc(Cl)cc1`, the IC50 result is “inactive”. The figure for `C=CCOc1ccc(/C=C2\SC(=S)N(CCC(=O)O)C2=O)cc1` is > 35.9 µM (inactive); for `O=S(=O)(/C(=C\c1ccc(C(F)(F)F)cc1)c1nc2ccccc2[nH]1)c1ccccc1` it is 3.93 µM. For `Cc1c(/C(O)=C2/C(=O)C(=O)N(Cc3cccnc3)C2c2ccccn2)cnn1-c1ccccc1` (stereo not drawn), the IC50 was > 35.9 µM (inactive). Take `Cc1cccc(C)c1NS(=O)(=O)c1ccc(-c2cnc(C3CC3)o2)cc1`: the IC50 was > 12 µM (inactive). The same measure for `CC(C)(C)c1ccc(-c2noc(CCC(=O)Nc3cccnc3)n2)cc1`: “inactive”.

On to `CC(=O)c1cccc(-c2csc3ncnc(Sc4nnnn4C)c23)c1`, for which the IC50 was 6.89 µM.

Turning to `C[C@@H](C(=O)Nc1ccc2c(c1)OCCO2)n1c(=O)[nH]c2ccccc2c1=O`, the IC50 result was “inactive”.

With `CN1C(=O)C2(C(C#N)=C(N)N(c3cc(Cl)cc(Cl)c3)C3=C2C(=O)CC(C)(C)C3)c2ccccc21` (stereo not drawn), the IC50 entry was “inactive”. For the molecule `COC(=O)c1cc(S(=O)(=O)NCCc2ccc(Cl)cc2)c[nH]1`, the IC50 result was “inactive”. Take `S=C(Nc1ccccc1)Nc1ccc(OCc2ccc(Cl)cc2Cl)cc1`: the IC50 was 7.96 µM. On to `CN(Cc1cnc2nc(N)nc(N)c2n1)c1ccc(C(=O)NC(CCC(=O)O)C(=O)O)cc1` (stereo not drawn), for which the IC50 is > 35.9 µM (inactive). The same measure for `O=C(CCCc1nc(-c2ccccc2Cl)no1)NC1CCCC1`: “inactive”; for `CCN(c1cccc(C)c1)c1ncnc2nc[nH]c12`: “inactive”; for `CC1CCN(C2=NC(=O)/C(=C/c3ccccc3F)S2)CC1`: “inactive”. The same measure for `COc1ccc(OC)c(Cc2cnc3nc(N)nc(N)c3c2C)c1`: > 35.9 µM (inactive); for `COc1cc([C@@H]2c3cc4c(cc3[C@@H](O[C@@H]3O[C@@H]5CO[C@@H](C)O[C@H]5[C@H](O)[C@H]3O)[C@H]3COC(=O)[C@H]23)OCO4)cc(OC)c1O`: > 35.9 µM (inactive); for `COc1cc2c(ccc3cc(OC)c(OC)c(O)c32)cc1O`: “inactive”.

Regarding `CN(C)c1ccc(C(=S)Nc2ccccc2)cc1`, the IC50 is > 35.9 µM (inactive).

For the molecule `NC(=O)c1cc(Sc2ccccc2)nc2ccccc12`, the IC50 result was “inactive”.

Regarding `Cc1cccc2sc(NNC(=O)c3ccc(S(=O)(=O)N4CC(C)CC(C)C4)cc3)nc12` (stereo not drawn), the IC50 was 7.55 µM. Take `O=[N+]([O-])c1nn(-c2ccc3c(c2)OCCO3)n(O)c1=Nc1ccccc1`: the IC50 is 9.18 µM.

With `O=[N+]([O-])c1ccc(N(CCO)CCO)c2c1no[n+]2[O-]`, the IC50 was 5.59 µM. `Cn1cnc([N+](=O)[O-])c1Sc1nc(N)nc2c1ncn2C1OC(CO)C(O)C1O` (stereo not drawn): the IC50 is 7.47 µM. As for `Cc1cc(C(=O)CN2C(=O)c3ccccc3S2(=O)=O)c(C)n1C(C)C`, the IC50 result is “inactive”. Turning to `O=C(NCc1ccccc1)c1c(Cl)nc(Cl)c(Cl)c1Cl`, the IC50 entry is “inactive”. The figure for `Cc1nc(N)nc(N)c1-c1ccc(Cl)c(Cl)c1` is > 11.9 µM (inactive). Take `CCC(=O)N1CCN(c2ccnc3cc(Cl)ccc23)CC1`: the IC50 result was “inactive”.

Regarding `C=C1C(=O)[C@]23C[C@H]1CCC2[C@@]1(C)C(C[C@@H]3O)[C@](C)(C(=O)OC)CC[C@@H]1O` (stereo partly drawn), the IC50 was 5.21 µM. The figure for `CCCS(=O)(=O)Nc1ccc(Nc2c3ccccc3nc3ccccc23)c(OC)c1` is > 35.9 µM (inactive); for `CC(=O)c1cccc(NC(=O)Nc2ccc3c(c2)N(C)C(=O)CS3)c1` it is “inactive”; for `Nc1nc(CCl)nc(Nc2cccc3ccccc23)n1` it is “inactive”. As to `Cc1nnc(SC(=O)N2c3ccccc3Sc3ccccc32)s1`, the IC50 was 7.54 µM. On to `O=C(N/N=C/c1cc(Br)c(Br)s1)c1ccncc1`, for which the IC50 entry was “inactive”. Consider `CN(C)/C=C/C(=O)c1ccc2noc(-c3ccccc3)c2c1`, for which the IC50 result is “inactive”. With `c1ccc(-c2noc(-c3ccc4ccccc4c3)n2)nc1`, the IC50 was 6.07 µM. In the case of `C=CCn1c(O)c(C(C)=NCc2cc(OC)cc(OC)c2)c(=O)[nH]c1=O`, the IC50 result is “inactive”. Turning to `COc1cc2c(c(OC)c1OC)-c1ccc(SC)c(=O)cc1C(NC=O)CC2` (stereo not drawn), the IC50 entry is “inactive”. As for `Nc1ncccc1C(=O)OCC(=O)N1CCN(S(=O)(=O)c2ccc(Cl)cc2)CC1`, the IC50 was 9.87 µM. As to `COc1ccc(/C=C2\CN(Cc3ccccc3)C/C(=C\c3ccc(OC)c(O)c3)C2=O)cc1O`, the IC50 result was “inactive”. As for `O=C(NCCc1ccccc1)c1ccc2c(c1)OCCO2`, the IC50 was 5.83 µM.

`C=CCOn1c(C)c(C(C)=O)c2c3nonc3ccc21`: the IC50 was 7.3 µM.

Values taken from PubChem BioAssay AID602167 (The Scripps Research Institute Molecular Screening Center, 2012).
